According to paper PMC6429214, “Design, Synthesis and Biological Evaluation of Isoxazole-Based CK1 Inhibitors Modified with Chiral Pyrrolidine Scaffolds” (Molecules, 2019):

Experiments:
Experiment in all cases: 33PanQinase panel
Type in all cases: biochemical
AXL = molecular target: T1, AXL (Homo sapiens, UniProt P30530); conditions: read-out: Residual Activity (%)
T1 construct: purchased ProQinase
Description: (§1) Figure 5 Dendrogram representation of the selectivity profile of 29d at a concentration of 1 μM in a panel of 320 wild-type kinases (ProQinase, Freiburg, Germany). The residual kinase activity was determined compared to DMSO control. Images were generated using TREEspot Software Tool, DISCOVERX CORPORATION 2010.
(§2) Figure S1. X-ray crystal structure of intermediate compound 25d (ORTEP drawing with ellipsoids at 30% probability). CCDC 1589043 contains the supplementary crystallographic data for this paper. The data can be obtained free of charge from The Cambridge Crystallographic Data Centre via www.ccdc.cam.ac.uk/structures.
(§3) Table S1 Data collection, structure refinement and Ramachrandran plot results of protein crystallization of CK1δ in complex with compound 30a and 30b, respectively.
(§4) Root-mean-square deviations
(§5) Additionally allowed 2.6 2.2
(§6) Table S2. Selectivity profile of compound 29d. The inhibitor has been screened at a concentration of 1 µM over a panel of 320 wild-type protein kinases by ProQinase GmbH (Freiburg, Germany) using an activity-based radiometric 33PanQinase® assay. Results are presented as percentage of residual kinase activity relative to […]
(§7) control. The final DMSO concentration was 1 % in each reaction-mix. Classification of protein kinase families refers to Manning et al. (Manning, G.; Whyte, D. B.; Martinez, R.; Hunter, T.; Sudarsanam, S. The Protein Kinase Complement of the Human Genome. Science 2002, 298, 1912–1934): AGC = containing PKA, PKG, PKC families; […] = containing Cdk, MAPK, GSK3, CLK families; STE = homologs of yeast sterile 7, sterile 11, sterile 20 kinases; TK = tyrosine kinase; TKL = tyrosine kinase-like.
(§8) Kinase name Kinase family Residual Activity (%)

CAMK2B = molecular target: T2, CAMK2B (Homo sapiens, UniProt Q13554); conditions: read-out: Residual Activity (%)
T2 construct: purchased ProQinase
Description: as §1, §2, §3, §4, §5, §6, §7, §8

CDK4/CycD1 = molecular target: T3, CDK4/CycD1 (Homo sapiens, UniProt P11802); conditions: CDK4/CycD1, 1 µM; read-out: Residual Activity (%)
T3 construct: purchased ProQinase
Description: as §1, §2, §3, §4, §5, §6, §7, §8

CK2-alpha2 = molecular target: T4, CK2-alpha2 (Homo sapiens, UniProt P19784); conditions: CK2-alpha2, 1 µM; read-out: Residual Activity (%)
T4 construct: purchased ProQinase
Description: as §1, §2, §3, §4, §5, §6, §7, §8

COT = molecular target: T5, COT (Homo sapiens, UniProt P41279); conditions: read-out: Residual Activity (%)
T5 construct: purchased ProQinase
Description: as §1, §2, §3, §4, §5, §6, §7, §8

EPHA8 = molecular target: T6, EPHA8 (Homo sapiens, UniProt P29322); conditions: EPHA8, 1 µM; read-out: Residual Activity (%)
T6 construct: purchased ProQinase
Description: as §1, §2, §3, §4, §5, §6, §7, §8

ERK7 = molecular target: T7, ERK7 (Homo sapiens, UniProt Q8TD08); conditions: ERK7, 1 µM; read-out: Residual Activity (%)
T7 construct: purchased ProQinase
Description: as §1, §2, §3, §4, §5, §6, §7, §8

FER = molecular target: T8, FER (Homo sapiens, UniProt P16591); conditions: read-out: Residual Activity (%)
T8 construct: purchased ProQinase
Description: as §1, §2, §3, §4, §5, §6, §7, §8

LIMK1 = molecular target: T9, LIMK1 (Homo sapiens, UniProt P53667); conditions: LIMK1, 1 µM; read-out: Residual Activity (%)
T9 construct: purchased ProQinase
T9 sequence (P53667 whole entry): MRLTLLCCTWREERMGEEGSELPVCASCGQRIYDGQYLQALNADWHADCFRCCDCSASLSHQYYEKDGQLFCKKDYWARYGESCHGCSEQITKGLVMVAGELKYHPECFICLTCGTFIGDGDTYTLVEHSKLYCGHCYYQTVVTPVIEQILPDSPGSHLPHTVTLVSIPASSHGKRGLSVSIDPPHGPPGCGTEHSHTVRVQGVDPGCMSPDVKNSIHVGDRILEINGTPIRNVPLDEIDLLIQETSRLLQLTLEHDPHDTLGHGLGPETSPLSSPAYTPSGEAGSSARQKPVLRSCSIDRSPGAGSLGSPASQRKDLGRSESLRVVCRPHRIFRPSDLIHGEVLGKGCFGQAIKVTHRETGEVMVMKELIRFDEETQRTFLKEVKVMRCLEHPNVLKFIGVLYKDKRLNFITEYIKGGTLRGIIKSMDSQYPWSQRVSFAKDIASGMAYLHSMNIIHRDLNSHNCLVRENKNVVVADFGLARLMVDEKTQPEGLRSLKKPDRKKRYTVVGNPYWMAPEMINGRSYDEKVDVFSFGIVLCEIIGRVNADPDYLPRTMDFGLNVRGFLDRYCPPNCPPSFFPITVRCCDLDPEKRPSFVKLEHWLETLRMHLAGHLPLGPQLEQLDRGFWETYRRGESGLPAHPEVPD
Description: as §1, §2, §3, §4, §5, §6, §7, §8

MAP3K10 = molecular target: T10, MAP3K10 (Homo sapiens, UniProt Q02779); conditions: MAP3K10, 1 µM; read-out: Residual Activity (%)
T10 construct: purchased ProQinase
T10 sequence (Q02779 whole entry): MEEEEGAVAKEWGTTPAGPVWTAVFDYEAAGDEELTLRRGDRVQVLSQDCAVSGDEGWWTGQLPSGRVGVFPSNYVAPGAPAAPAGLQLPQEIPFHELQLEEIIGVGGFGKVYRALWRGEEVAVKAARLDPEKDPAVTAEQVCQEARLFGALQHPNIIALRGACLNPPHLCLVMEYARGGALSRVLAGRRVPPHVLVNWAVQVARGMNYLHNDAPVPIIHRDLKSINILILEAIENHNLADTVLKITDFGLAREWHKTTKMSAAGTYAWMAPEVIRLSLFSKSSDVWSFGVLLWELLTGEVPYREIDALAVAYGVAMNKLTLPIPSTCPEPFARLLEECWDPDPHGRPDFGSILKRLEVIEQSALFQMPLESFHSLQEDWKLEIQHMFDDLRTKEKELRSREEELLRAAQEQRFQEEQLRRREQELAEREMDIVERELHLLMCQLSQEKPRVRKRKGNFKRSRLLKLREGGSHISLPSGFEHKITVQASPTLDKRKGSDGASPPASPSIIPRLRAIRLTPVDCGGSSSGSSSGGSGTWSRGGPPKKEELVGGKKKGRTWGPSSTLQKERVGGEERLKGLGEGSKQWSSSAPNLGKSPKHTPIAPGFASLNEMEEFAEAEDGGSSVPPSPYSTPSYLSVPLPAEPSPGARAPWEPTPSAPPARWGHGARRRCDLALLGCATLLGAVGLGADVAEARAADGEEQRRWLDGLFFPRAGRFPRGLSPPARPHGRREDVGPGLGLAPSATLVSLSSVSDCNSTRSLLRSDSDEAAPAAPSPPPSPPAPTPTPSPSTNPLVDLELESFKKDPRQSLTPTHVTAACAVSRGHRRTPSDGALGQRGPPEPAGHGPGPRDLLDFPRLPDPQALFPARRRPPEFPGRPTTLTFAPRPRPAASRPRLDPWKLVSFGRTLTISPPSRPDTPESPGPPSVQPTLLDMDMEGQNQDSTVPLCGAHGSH
Description: as §1, §2, §3, §4, §5, §6, §7, §8

MAP4K2 = molecular target: T11, MAP4K2 (Homo sapiens, UniProt Q12851); conditions: MAP4K2, 1 µM; read-out: Residual Activity (%)
T11 construct: purchased ProQinase
T11 sequence (Q12851 whole entry): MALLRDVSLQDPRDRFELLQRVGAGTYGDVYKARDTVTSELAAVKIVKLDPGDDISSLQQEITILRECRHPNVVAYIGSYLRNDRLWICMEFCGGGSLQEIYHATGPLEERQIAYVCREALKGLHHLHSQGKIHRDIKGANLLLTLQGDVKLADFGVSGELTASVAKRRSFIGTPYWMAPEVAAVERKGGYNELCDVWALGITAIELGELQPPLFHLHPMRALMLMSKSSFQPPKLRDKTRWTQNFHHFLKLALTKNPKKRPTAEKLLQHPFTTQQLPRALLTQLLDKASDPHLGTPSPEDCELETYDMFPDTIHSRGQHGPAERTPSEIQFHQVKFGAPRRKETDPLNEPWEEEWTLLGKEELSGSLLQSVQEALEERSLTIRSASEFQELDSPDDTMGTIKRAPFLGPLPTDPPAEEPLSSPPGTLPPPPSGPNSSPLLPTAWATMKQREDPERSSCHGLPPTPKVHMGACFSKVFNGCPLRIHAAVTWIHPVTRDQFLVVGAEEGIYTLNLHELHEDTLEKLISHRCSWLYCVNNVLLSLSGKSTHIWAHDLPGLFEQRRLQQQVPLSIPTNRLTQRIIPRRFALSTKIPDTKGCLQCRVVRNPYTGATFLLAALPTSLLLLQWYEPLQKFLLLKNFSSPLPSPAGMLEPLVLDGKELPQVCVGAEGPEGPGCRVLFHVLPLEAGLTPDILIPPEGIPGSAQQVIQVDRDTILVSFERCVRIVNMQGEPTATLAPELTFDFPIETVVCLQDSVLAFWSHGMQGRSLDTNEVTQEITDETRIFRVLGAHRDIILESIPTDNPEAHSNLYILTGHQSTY
Description: as §1, §2, §3, §4, §5, §6, §7, §8

MAP4K5 = molecular target: T12, MAP4K5 (Homo sapiens, UniProt Q9Y4K4); conditions: MAP4K5, 1 µM; read-out: Residual Activity (%)
T12 construct: purchased ProQinase
T12 sequence (Q9Y4K4 whole entry): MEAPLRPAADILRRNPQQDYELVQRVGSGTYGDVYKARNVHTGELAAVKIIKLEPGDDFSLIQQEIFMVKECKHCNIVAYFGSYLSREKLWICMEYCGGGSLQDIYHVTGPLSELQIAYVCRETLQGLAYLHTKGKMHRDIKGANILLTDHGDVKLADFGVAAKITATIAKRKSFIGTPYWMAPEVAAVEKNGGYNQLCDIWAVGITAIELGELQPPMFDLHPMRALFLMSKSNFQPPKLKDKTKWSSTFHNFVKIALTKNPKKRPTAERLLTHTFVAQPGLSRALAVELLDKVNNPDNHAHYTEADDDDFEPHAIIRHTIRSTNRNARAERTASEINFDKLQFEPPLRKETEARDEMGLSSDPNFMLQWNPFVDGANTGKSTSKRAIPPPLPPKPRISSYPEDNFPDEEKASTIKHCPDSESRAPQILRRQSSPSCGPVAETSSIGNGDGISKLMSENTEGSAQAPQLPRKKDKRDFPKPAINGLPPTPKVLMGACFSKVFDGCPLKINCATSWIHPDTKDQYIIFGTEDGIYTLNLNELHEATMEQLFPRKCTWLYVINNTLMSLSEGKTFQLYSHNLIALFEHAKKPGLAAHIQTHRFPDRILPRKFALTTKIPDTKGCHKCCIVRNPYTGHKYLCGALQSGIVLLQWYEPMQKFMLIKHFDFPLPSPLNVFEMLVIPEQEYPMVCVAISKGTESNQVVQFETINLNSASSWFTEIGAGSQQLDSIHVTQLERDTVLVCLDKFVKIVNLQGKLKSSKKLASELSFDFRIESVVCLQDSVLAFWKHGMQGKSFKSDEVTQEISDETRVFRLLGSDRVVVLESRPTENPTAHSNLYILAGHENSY
Description: as §1, §2, §3, §4, §5, §6, §7, §8

MARK3 = molecular target: T13, MARK3 (Homo sapiens, UniProt P27448); conditions: MARK3, 1 µM; read-out: Residual Activity (%)
T13 construct: purchased ProQinase
Description: as §1, §2, §3, §4, §5, §6, §7, §8

MELK = molecular target: T14, MELK (Homo sapiens, UniProt Q14680); conditions: read-out: Residual Activity (%)
T14 construct: purchased ProQinase
Description: as §1, §2, §3, §4, §5, §6, §7, §8

MERTK = molecular target: T15, MERTK (Homo sapiens, UniProt Q12866); conditions: read-out: Residual Activity (%)
T15 construct: purchased ProQinase
Description: as §1, §2, §3, §4, §5, §6, §7, §8

MINK1 = molecular target: T16, MINK1 (Homo sapiens, UniProt Q8N4C8); conditions: MINK1, 1 µM; read-out: Residual Activity (%)
T16 construct: purchased ProQinase
Description: as §1, §2, §3, §4, §5, §6, §7, §8

NEK9 = molecular target: T17, NEK9 (Homo sapiens, UniProt Q8TD19); conditions: NEK9, 1 µM; read-out: Residual Activity (%)
T17 construct: purchased ProQinase
Description: as §1, §2, §3, §4, §5, §6, §7, §8

PKC-beta2 = molecular target: T18, PKC-beta2 (Homo sapiens, UniProt P05771); conditions: PKC-beta2, 1 µM; read-out: Residual Activity (%)
T18 construct: purchased ProQinase
T18 sequence (P05771 1-673 isoform P05771-2): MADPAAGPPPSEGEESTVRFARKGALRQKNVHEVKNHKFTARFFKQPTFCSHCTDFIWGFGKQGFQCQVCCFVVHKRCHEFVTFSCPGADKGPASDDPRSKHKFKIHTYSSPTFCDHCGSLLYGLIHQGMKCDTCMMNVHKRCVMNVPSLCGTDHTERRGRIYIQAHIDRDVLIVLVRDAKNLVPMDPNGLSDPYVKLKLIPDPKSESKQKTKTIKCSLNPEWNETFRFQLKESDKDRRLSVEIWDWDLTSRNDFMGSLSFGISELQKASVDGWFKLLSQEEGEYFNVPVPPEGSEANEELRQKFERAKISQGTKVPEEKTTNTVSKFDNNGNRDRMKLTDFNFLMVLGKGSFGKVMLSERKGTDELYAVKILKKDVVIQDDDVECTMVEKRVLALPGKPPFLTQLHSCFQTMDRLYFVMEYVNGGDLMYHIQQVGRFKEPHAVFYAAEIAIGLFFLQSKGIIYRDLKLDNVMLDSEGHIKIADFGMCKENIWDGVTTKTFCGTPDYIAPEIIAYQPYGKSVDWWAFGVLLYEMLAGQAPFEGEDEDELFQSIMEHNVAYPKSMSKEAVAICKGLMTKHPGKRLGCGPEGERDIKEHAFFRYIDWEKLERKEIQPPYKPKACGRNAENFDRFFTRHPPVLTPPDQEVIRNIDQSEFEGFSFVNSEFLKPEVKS
Description: as §1, §2, §3, §4, §5, §6, §7, §8

PLK3 = molecular target: T19, PLK3 (Homo sapiens, UniProt Q9H4B4); conditions: PLK3, 1 µM; read-out: Residual Activity (%)
T19 construct: purchased ProQinase
Description: as §1, §2, §3, §4, §5, §6, §7, §8

PRKG1 = molecular target: T20, PRKG1 (Homo sapiens, UniProt Q13976); conditions: PRKG1, 1 µM; read-out: Residual Activity (%)
T20 construct: purchased ProQinase
Description: as §1, §2, §3, §4, §5, §6, §7, §8

PRKG2 = molecular target: T21, PRKG2 (Homo sapiens, UniProt Q13237); conditions: PRKG2, 1 µM; read-out: Residual Activity (%)
T21 construct: purchased ProQinase
Description: as §1, §2, §3, §4, §5, §6, §7, §8

PYK2 = molecular target: T22, PYK2 (Homo sapiens, UniProt Q14289); conditions: PYK2, 1 µM; read-out: Residual Activity (%)
T22 construct: purchased ProQinase
T22 sequence (Q14289 whole entry): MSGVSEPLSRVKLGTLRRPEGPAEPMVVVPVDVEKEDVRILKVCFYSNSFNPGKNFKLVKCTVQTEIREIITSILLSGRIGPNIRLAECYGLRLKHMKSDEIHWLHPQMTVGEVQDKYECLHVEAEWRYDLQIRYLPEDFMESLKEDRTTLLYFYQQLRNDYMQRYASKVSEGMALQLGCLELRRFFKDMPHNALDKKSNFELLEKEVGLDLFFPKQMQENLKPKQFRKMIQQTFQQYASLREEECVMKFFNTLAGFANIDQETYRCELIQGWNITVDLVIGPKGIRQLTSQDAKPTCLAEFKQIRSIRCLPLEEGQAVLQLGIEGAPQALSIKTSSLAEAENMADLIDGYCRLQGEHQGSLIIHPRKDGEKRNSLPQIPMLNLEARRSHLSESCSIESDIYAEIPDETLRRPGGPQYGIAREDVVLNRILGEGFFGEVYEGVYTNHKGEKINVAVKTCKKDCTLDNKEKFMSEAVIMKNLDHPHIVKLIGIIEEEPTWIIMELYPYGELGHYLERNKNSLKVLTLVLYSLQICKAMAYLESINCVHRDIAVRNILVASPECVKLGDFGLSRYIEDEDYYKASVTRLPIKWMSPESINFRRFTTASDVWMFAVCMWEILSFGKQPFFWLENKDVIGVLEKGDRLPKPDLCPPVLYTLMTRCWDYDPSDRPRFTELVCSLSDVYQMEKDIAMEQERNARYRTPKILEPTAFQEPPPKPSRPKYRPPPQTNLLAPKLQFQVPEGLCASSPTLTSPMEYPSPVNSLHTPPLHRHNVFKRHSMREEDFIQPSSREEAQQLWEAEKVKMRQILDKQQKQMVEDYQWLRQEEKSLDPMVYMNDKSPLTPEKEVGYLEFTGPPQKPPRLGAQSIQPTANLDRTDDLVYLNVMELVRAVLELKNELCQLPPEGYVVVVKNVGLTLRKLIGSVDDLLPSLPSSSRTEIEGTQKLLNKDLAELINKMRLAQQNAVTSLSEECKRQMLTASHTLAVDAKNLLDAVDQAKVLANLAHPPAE
Description: as §1, §2, §3, §4, §5, §6, §7, §8

RPS6KA6 = molecular target: T23, RPS6KA6 (Homo sapiens, UniProt Q9UK32); conditions: RPS6KA6, 1 µM; read-out: Residual Activity (%)
T23 construct: purchased ProQinase
Description: as §1, §2, §3, §4, §5, §6, §7, §8

TLK2 = molecular target: T24, TLK2 (Homo sapiens, UniProt Q86UE8); conditions: TLK2, 1 µM; read-out: Residual Activity (%)
T24 construct: purchased ProQinase
Description: as §1, §2, §3, §4, §5, §6, §7, §8

TRK-B = molecular target: T25, TRK-B (Homo sapiens, UniProt Q16620); conditions: read-out: Residual Activity (%)
T25 construct: purchased ProQinase
Description: as §1, §2, §3, §4, §5, §6, §7, §8

WNK3 = molecular target: T26, WNK3 (Homo sapiens, UniProt Q9BYP7); conditions: WNK3, 1 µM; read-out: Residual Activity (%)
T26 construct: purchased ProQinase
Description: as §1, §2, §3, §4, §5, §6, §7, §8

mTOR = molecular target: T27, mTOR (Homo sapiens, UniProt P42345); conditions: read-out: Residual Activity (%)
T27 construct: purchased ProQinase
Description: as §1, §2, §3, §4, §5, §6, §7, §8

## COc1ccc(-c2cc(C(=O)Nc3cc(-c4c(-c5ccc(F)cc5)noc4C(C)C)ccn3)n(CC3NCC(O)C3O)c2)cc1 (stereo not drawn) [29d]
AXL
  remaining activity at 1 µM: 110%
CAMK2B
  remaining activity at 1 µM: 102%
CDK4/CycD1
  remaining activity at 1 µM: 108%
CK2-alpha2
  remaining activity at 1 µM: 111%
COT
  remaining activity at 1 µM: 89%
EPHA8
  remaining activity at 1 µM: 113%
ERK7
  remaining activity at 1 µM: 102%
FER
  remaining activity at 1 µM: 98%
LIMK1
  remaining activity at 1 µM: 105%
MAP3K10
  remaining activity at 1 µM: 120%
MAP4K2
  remaining activity at 1 µM: 93%
MAP4K5
  remaining activity at 1 µM: 96%
MARK3
  remaining activity at 1 µM: 96%
MELK
  remaining activity at 1 µM: 107%
MERTK
  remaining activity at 1 µM: 76%
MINK1
  remaining activity at 1 µM: 82%
NEK9
  remaining activity at 1 µM: 91%
PKC-beta2
  remaining activity at 1 µM: 118%
PLK3
  remaining activity at 1 µM: 112%
PRKG1
  remaining activity at 1 µM: 89%
PRKG2
  remaining activity at 1 µM: 100%
PYK2
  remaining activity at 1 µM: 116%
RPS6KA6
  remaining activity at 1 µM: 89%
TLK2
  remaining activity at 1 µM: 108%
TRK-B
  remaining activity at 1 µM: 120%
WNK3
  remaining activity at 1 µM: 103%
mTOR
  remaining activity at 1 µM: 127%
